Source: publication PMC5653977 (EMBO Molecular Medicine, 2017)
Read-outs that look alike come from different tables or passages of the source.

Tests used:
EGFR dimers = EGFR dimers (Homo sapiens, UniProt P00533); assay: ERBB dimerization split TEV assay EGFR/EGFR; assay type: cell-based
Source text: Gateway recombination cloning (Life Technologies) was applied for generating plasmids. Each ORF cloned was PCR‐amplified using the Pwo proofreading DNA polymerase (Roche) and BP‐recombined into the pDONR/Zeo plasmid (Life Technologies) to yield an entry vector, which was control‐digested using BsrGI to release the insert, and sequence‐verified. The following human ORFs were cloned using cDNA image clones ordered from Source BioScience: ERBB4 transcript variant JM‐a/CYT‐1 (Accession: BC112199), PIK3R1 (BC094795), GRB2 transcript variant 1 (BC000631), SHC1 transcript variant 2 (BC014158), STAT5A (BC027036), and SRC transcription variant 1 (BC051270). For EGFR, ERBB2, and ERBB3, entry vectors were obtained from the human CCSB kinase collection available from Addgene (Johannessen et al, 2010). Entry vectors were LR‐recombined into split TEV destination vectors [either pcDNA_attR1‐ORF‐attR2‐NTEV‐tevS‐GV‐2xHA_DEST or pTag4C_attR1‐ORF‐attR2‐CTEV‐2xHA_DEST, plasmids were described in detail before (Wehr et al, 2006)] to yield expression vectors, which were control‐digested using BsrGI. The plasmids for Nrg1 type I β1a and rat Nrg1 type III β1a have been described before (Wehr et al, 2006).

GAL4/UAS system = assay: GAL4/UAS control assay; assay type: cell-based; conditions: GV and 10×UAS-Fluc plasmids in PC12 cells
Source text: All counts (407 compounds and 96 controls) from the Nrg1‐ERBB4‐PIK3R1 split TEV compound screen were plotted against the z‐score using Mondrian, with pathway activators displaying high values and inhibitors low values. For the secondary analysis, we selected all candidates that were at least three standard deviations away from the mean. […] For the GAL4/UAS assay, GAL4‐VP16 (GV) and 10×UAS firefly luciferase (10×UAS‐Fluc) plasmids were transfected into PC12 cells. For TEV protease activity assays, a transmembrane‐localized TEV protease (TM‐TEV) was expressed in PC12 cells with a transmembrane‐localized and TEV‐cleavable GV (TM‐tevS‐GV) and the 10×UAS‐Fluc reporter. […] EGFld was applied as Nrg1 stimulus. In both control assays, the assay activity (firefly luciferase, black lines) was similar to the toxicity levels (gray lines). Data are shown as mean, a nd error bars represent SEM, n = 6. The insets depict IC50 values in μM.

Limk1 = assay: Western blot of phospho-Limk1 in prefrontal cortex of spironolactone-treated mice; assay type: in vivo, mouse; conditions: Nrg1-tg mice, 50 mg/kg s.c. daily for 21 days, prefrontal cortex lysates
Procedure: (§1) For the generation of lysates, the isolated tissue was immediately placed into cooled (4°C) sucrose buffer (320 mM sucrose, 10 mM Tris–HCl, 1 mM NaHCO3, 1 mM MgCl2, supplemented with 10 mM NaF, 1 mM […], 1 mM ZnCl2, 4.5 mM Na4P20_7 as phosphatase inhibitors, and the complete protease inhibitor cocktail (Roche)), homogenized using an ultra‐turrax (IKA GmbH, Staufen, Germany), sonicated (3 pulses for 10 s), and denatured for 10 min at 70°C in LDS sample buffer.
(§2) Each blot was replicated two times.
(§3) Treatment was continued throughout the behavioral analysis period. To avoid injection‐induced stress prior to behavioral testing, mice were injected in the afternoon, after the entire cohort has completed the behavioral paradigm.

ERK = assay: Western blot of pERK in prefrontal cortex of spironolactone-treated mice; assay type: in vivo, mouse; conditions: Nrg1-tg and wt mice, 50 mg/kg s.c. daily for 21 days, prefrontal cortex lysates
Procedure: as §1, §2, §3

Nrg1-tg and wt mice [1] = assay: Open field test; assay type: in vivo, mouse; conditions: 50 mg/kg s.c. daily
Procedure: (§4) For behavioral testing, age‐matched male mice (8–16 weeks) on C57Bl/6 background that constitutively overexpress the 2xHA‐tagged Nrg1 type III β1a isoform (Nrg1‐tg) under the control of the mouse Thy1.2 promoter (Velanac et al, 2012) and their wild‐type (wt) littermates as controls were used. Animals were group‐housed in the same ventilated sound‐attenuated rooms under a 12‐h light/12‐h dark schedule (lights on at 8:00 am) at an ambient temperature of 21°C with food and water available ad libitum. One week prior to experiments, mice were separated into single cages and habituated to the experimental rooms. To minimize the influence of the circadian rhythm on drug actions, the treatment groups were analyzed at balanced time points during the light phase. […] All animal experiments were conducted in accordance with NIH principles of laboratory animal care and were approved by the Government of Lower Saxony, Germany, in accordance with the German Animal Protection Law.
as §3
Spontaneous locomotor activity was verified in the open‐field test using a Plexiglas box (45 × 45 × 55 cm). The same test arena was modified with a floor insert containing 16 symmetrically allocated holes for the hole board test. During a 10‐min testing session, mouse behavior was monitored by infrared sensors and recorded by the ActiMot software (TSE, Bad Homburg, Germany). Levels of urination (scored in events) and defecation (scored as feci in events) were determined manually during the open‐field test.

Nrg1-tg and wt mice [2] = assay: Tail suspension test; assay type: in vivo, mouse; conditions: 50 mg/kg s.c. daily
Procedure: as §4, §3

Sequence of EGFR dimers (P00533 25-1210): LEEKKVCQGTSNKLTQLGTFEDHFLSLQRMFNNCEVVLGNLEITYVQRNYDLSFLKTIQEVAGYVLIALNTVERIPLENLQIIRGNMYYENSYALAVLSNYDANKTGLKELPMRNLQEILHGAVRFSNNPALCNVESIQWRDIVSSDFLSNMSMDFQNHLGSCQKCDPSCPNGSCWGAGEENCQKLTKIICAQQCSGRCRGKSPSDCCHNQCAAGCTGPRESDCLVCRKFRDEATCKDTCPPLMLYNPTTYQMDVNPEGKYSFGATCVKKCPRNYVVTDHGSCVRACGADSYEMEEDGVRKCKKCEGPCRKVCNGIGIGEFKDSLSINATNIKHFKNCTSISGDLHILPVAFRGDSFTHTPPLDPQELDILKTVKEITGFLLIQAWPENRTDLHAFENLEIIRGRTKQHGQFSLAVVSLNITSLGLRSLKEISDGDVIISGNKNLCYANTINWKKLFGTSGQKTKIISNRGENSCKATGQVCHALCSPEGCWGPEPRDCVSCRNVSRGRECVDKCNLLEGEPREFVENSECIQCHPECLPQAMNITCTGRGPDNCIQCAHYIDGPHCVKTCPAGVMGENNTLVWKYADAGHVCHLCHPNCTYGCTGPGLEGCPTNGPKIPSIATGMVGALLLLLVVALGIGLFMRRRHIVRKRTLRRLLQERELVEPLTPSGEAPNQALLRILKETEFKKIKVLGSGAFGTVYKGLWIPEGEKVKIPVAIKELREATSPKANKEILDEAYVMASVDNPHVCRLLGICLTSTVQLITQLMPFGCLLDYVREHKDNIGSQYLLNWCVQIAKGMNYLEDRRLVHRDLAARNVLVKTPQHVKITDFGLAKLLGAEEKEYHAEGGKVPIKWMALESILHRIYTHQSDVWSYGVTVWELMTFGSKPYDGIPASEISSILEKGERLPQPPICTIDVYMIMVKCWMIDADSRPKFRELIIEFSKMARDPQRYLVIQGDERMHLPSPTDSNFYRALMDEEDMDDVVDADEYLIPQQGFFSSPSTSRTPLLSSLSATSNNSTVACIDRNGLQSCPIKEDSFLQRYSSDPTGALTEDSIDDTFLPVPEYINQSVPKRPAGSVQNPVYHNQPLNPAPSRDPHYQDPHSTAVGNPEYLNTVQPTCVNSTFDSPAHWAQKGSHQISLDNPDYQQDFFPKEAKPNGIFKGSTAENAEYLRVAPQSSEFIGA
Sequence of EGFR dimers (P00533 25-1210): as above

## CC(=O)S[C@@H]1CC2=CC(=O)CC[C@]2(C)[C@H]2CC[C@@]3(C)[C@@H](CC[C@@]34CCC(=O)O4)[C@H]12 [Spironolactone]
EGFR dimers; 100 ng/ml EGF as stimulus, read-out: IC50, EGFR dimers, stimulus EGF
  IC50: 1.74 µM
EGFR dimers; PC12 cells, 10 ng/ml EGFld, read-out: IC50, EGFR-NTEV-tevS-GV + EGFR-CTEV
  IC50: 8.5 µM
GAL4/UAS system
  effect on activity of the GAL4/UAS system: does not affect activities of control assays
Limk1
  phospho-Limk1 levels: markedly upregulated
ERK
  pERK (downstream signaling): neither modulated by Nrg1 overexpression, nor by spironolactone treatment
Nrg1-tg and wt mice [1]
  defecation in the open-field test: no effect of treatment observed
  time in the center of the open-field arena: did not influence this parameter
  urination in the open-field test: without effect of treatment
Nrg1-tg and wt mice [1]; Nrg1-tg mice
  locomotor hyperactivity (distance in the open-field arena): reverted
Nrg1-tg and wt mice [2]
  time active in the tail suspension test (genotype effect): independent of treatment
